Two molecules from US20050112696A1, “Compositions, methods and assays related to secretase cleavage specificity” (The University of Texas Southwestern Medical Center, priority 2003, published 2005) can be followed below.

Entries after “also recorded” stand apart in the source; their conditions may differ.

For one assay, the system named is γ-secretase. The assay is described as follows: Immunoblotting of C-terminal fragments (CTFs) in transfected HEK293 cells. It counts as cell-based. The procedure:
HEK293, HeLa and COS7 cells were transfected at 50 to 80% confluency in 6-well plates using Fugene6 reagent (Roche). For Ga14-Tip60 transactivation assays, HEK293 cells were co-transfected with five plasmids: (1) pG5E1B-luc=0.15 μg; (2) pCMV-LacZ=0.10 μg; (3) pM-Tip60=0.5 μg; (4) pCMV-FE65=0.5 μg; and (5) 0.05-1.0 μg pCMV-APP, 0.025-0.5 μg pCMV-Sport6-APLP1, or 0.05-1.0 μg pcDNA3.1-APLP2 as indicated. For the Fe65 titration experiments, HEK293 cells were cotransfected with five plasmids: (1) pG5E1B-luc=0.15 μg; (2) pCMV-LacZ=0.10 μg; (3) pM-Tip60=0.5 μg; (4) 0.5 μg of APP, 0.25 μg of APLP1, or 0.5 μg of APLP2; and (5) 0-2.0 μg pCMV-Fe65. Cells were harvested 2 days after transfection in 0.25 ml/well of reporter lysis buffer (Promega), and their Luciferase and β-galctosidase activities were determined with the Promega luciferase assay kit using a chemiluminescence reader from Berthold, and with the O-nitrophenyl-D-galacto-pyranoside assay for β-galactosidase, respectively. The luciferase activity was standardized by the β-galactosidase activity to control for transfection efficiency and further normalized with the transactivation level with cells expressing no APPs or Fe65. Values shown are averages of transactivation assays performed in triplates. For immunoblotting analyses, HEK293 were transfected with 1 μg expression plasmids encoding APP, APLP1, APLP2, SynCam, or neurexin 1β, with or without 0.25 μg of BACE 1 expression vector. For APLP1 cleavage experiments, 1 μg of APLP1 or APP was cotransfected with BACE (0.25 μg and 0.5 μg) or ADAM 9 (0.5 μg and 1.0 μg) in HEK293, HeLa and COS cells. The cell extracts or media were harvested 24 hours after the transfection. Where indicated, γ-secretase inhibitor IX (DAPT; Calbiochem) was added (2 μM final concentration) 6 hrs before harvesting the cells.
SDS-PAGE and Immunoblotting experiments were performed using standard procedures well know to one of ordinary skill in the are with either regular SDS gels or tricine gels. Lanes were loaded with ˜20 μg of protein from whole cell extracts harvested in sample buffer, and analysed by immunoblotting after SDS-PAGE using antibody dilutions of 1:1,000-2,000 for primary and 1:10,000 HRP conjugated goat-anti-rabbit secondary antibodies (ICN). For immunoblotting analysis of secreted proteins, supernatants from transfected cells (30 μl with approximately 5 μg protein) were loaded per lane.
In the next set of experiments these antibodies were employed to probe for APP, APLP1, and APLP2 cleavage in cells that either expressed these proteins alone or in combination with BACE 1 (FIG. 4). As negative controls, two other neuronal cell-surface proteins, […] (Nrx1β) and SynCAM (36,37,39) were examined. For each of the five proteins studied, six conditions were investigated: HEK293 control cells (lane 1), transfected cells only expressing BACE 1 (lane 2), or cells transfected either with APP, APLP1, APLP2, neurexin 1β (Nrx1β), or SynCAM alone (lanes 3 and 5) or together with BACE 1 (lanes 4 and 6) were incubated in the absence (lanes 1-4) or presence of the γ-secretase inhibitor DAPT ([…]; lanes 5-6). Transfected proteins (indicated on the right) were examined by immunoblotting (20 μg cell protein/lane) using regular SDS-PAGE (top panel for each protein) to monitor the full-length proteins (FL), or by tricine gel electrophoresis to detect their CTFs (bottom panel for each protein). […]
(A western blot detects proteins with antibodies after separation by electrophoresis.)

The test system of assay [1] is Ga14-Tip60 dependent transcription mediated by APLP2 (γ-secretase cleavage). The assay is described as follows: Ga14-Tip60 transactivation assay, cells co-transfected with APLP2 and Fe65. Particulars: HEK293 cells; DAPT 2 and 10 μM; inhibition was incomplete; FIG. 2C. It counts as cell-based. The procedure: (§1) HEK293, HeLa and COS7 cells were transfected at 50 to 80% confluency in 6-well plates using Fugene6 reagent (Roche). For Ga14-Tip60 transactivation assays, HEK293 cells were co-transfected with five plasmids: (1) pG5E1B-luc=0.15 μg; (2) pCMV-LacZ=0.10 μg; (3) pM-Tip60=0.5 μg; (4) pCMV-FE65=0.5 μg; and (5) 0.05-1.0 μg pCMV-APP, 0.025-0.5 μg pCMV-Sport6-APLP1, or 0.05-1.0 μg pcDNA3.1-APLP2 as indicated. For the Fe65 titration experiments, HEK293 cells were cotransfected with five plasmids: (1) pG5E1B-luc=0.15 μg; (2) pCMV-LacZ=0.10 μg; (3) pM-Tip60=0.5 μg; (4) 0.5 μg of APP, 0.25 μg of APLP1, or 0.5 μg of APLP2; and (5) 0-2.0 μg pCMV-Fe65. Cells were harvested 2 days after transfection in 0.25 ml/well of reporter lysis buffer (Promega), and their Luciferase and β-galctosidase activities were determined with the Promega luciferase assay kit using a chemiluminescence reader from Berthold, and with the O-nitrophenyl-D-galacto-pyranoside assay for β-galactosidase, respectively. […]
(§2) For all three proteins (APP, APLP1, and APLP2), a bell-shaped dose-response curve of transactivation that depended on APP or an APLP was observed (FIG. 2A). […] Again, a dose-dependent, highly specific transactivation of Ga14-dependent transcription was detected. […]

Assay [2] concerns Ga14-Tip60 dependent transcription mediated by APLP1 (γ-secretase cleavage). The assay is described as follows: Ga14-Tip60 transactivation assay, cells co-transfected with APLP1 and Fe65. It counts as cell-based. Particulars: HEK293 cells; DAPT 2 and 10 μM; inhibition was incomplete; FIG. 2C. The procedure:
as §1, §2

Assay [3] concerns Ga14-Tip60 dependent transcription mediated by APP (γ-secretase cleavage). Kind of assay: Ga14-Tip60 transactivation assay, cells co-transfected with APP and Fe65. It counts as cell-based. The following applies: HEK293 cells; DAPT 2 and 10 μM; inhibition was incomplete; FIG. 2C. The procedure:
as §1, §2

The target of assay [4] is β-secretase cleavage sites of APP (Homo sapiens, UniProt P05067). The assay is described as follows: Effect of F-spondin binding on β-secretase cleavage of APP.
For assay [5], the system named is central APP domain (CAD) of APP, APLP1 and APLP2. Kind of assay: F-spondin binding to the central APP domain (CAD). Particulars: extracellular ligand; reelin domain or reelin and spondin domains sufficient.

Sequence of β-secretase cleavage sites of APP (P05067 18-770): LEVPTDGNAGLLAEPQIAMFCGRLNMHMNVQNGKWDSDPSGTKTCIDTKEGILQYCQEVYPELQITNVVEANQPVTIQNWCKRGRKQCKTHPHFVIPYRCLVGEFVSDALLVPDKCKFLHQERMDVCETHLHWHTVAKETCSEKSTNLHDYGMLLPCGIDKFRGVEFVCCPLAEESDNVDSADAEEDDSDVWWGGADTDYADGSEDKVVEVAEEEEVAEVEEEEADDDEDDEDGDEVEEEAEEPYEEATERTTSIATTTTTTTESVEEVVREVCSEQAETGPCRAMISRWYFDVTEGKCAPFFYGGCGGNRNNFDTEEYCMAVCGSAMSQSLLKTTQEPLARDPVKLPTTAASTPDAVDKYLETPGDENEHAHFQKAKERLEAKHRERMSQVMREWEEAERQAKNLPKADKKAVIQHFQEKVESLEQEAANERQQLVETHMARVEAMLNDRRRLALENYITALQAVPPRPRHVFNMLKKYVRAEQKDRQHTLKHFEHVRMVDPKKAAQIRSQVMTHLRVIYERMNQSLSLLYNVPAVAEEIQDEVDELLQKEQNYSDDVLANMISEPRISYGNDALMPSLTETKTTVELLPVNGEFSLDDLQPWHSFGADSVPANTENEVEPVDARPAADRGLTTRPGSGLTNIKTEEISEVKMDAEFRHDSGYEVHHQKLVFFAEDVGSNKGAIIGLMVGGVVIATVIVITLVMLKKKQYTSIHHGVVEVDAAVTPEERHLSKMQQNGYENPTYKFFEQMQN

As to `C[C@H](NC(=O)Cc1cc(F)cc(F)c1)C(=O)N[C@H](C(=O)OC(C)(C)C)c1ccccc1` [DAPT], in the assay on γ-secretase (HEK293 cells transfected with APLP1, with or without BACE 1, DAPT (2 mM [sic]), FIG. 4), the “CTFs of APLP1 upon DAPT treatment” value is recorded as “very abundant”. Also, in the assay on γ-secretase (HEK293 cells transfected with APLP2, with or without BACE 1, DAPT (2 mM [sic]), FIG. 4), the “CTFs of APLP2 upon DAPT treatment” value is reported as “very abundant”. In addition, the “CTFs of APP upon DAPT treatment” value in the assay on γ-secretase (HEK293 cells transfected with APP, with or without BACE 1, DAPT added 6 hrs before harvesting, tricine gel immunoblot) is “very abundant; also recorded: massive accumulation of CTFs”. Besides, the “CTFs of neurexin 1β/APP hybrid upon DAPT treatment” value with γ-secretase (HEK293 cells transfected with Nrx1β/APP hybrid, with or without BACE 1, FIG. 6B) is reported as “massive accumulation of CTFs”. The “CTFs of neurexin 1β upon DAPT treatment” value with γ-secretase (HEK293 cells transfected with neurexin 1β, DAPT (2 mM [sic]), said to be most likely an artifact, FIG. 4) was “CTFs were also observed”. Also, the “inhibition of transactivation mediated by APLP2” value in assay [1] is recorded as “Significant inhibition”. Further, the “inhibition of transactivation mediated by APLP1” value in assay [2] was “Significant inhibition”. Moreover, the “inhibition of transactivation mediated by APP” value in assay [3] was “Significant inhibition”.

B1: F-spondin: secreted multi-domain protein that promotes neural cell adhesion and neurite extension; extracellular ligand of APP (protein, UniProt Q9HCB6 29-807, looked up)
Spondin-1: FSDETLDKVPKSEGYCSRILRAQGTRREGYTEFSLRVEGDPDFYKPGTSYRVTLSAAPPSYFRGFTLIALRENREGDKEEDHAGTFQIIDEEETQFMSNCPVAVTESTPRRRTRIQVFWIAPPAGTGCVILKASIVQKRIIYFQDEGSLTKKLCEQDSTFDGVTDKPILDCCACGTAKYRLTFYGNWSEKTHPKDYPRRANHWSAIIGGSHSKNYVLWEYGGYASEGVKQVAELGSPVKMEEEIRQQSDEVLTVIKAKAQWPAWQPLNVRAAPSAEFSVDRTRHLMSFLTMMGPSPDWNVGLSAEDLCTKECGWVQKVVQDLIPWDAGTDSGVTYESPNKPTIPQEKIRPLTSLDHPQSPFYDPEGGSITQVARVVIERIARKGEQCNIVPDNVDDIVADLAPEEKDEDDTPETCIYSNWSPWSACSSSTCDKGKRMRQRMLKAQLDLSVPCPDTQDFQPCMGPGCSDEDGSTCTMSEWITWSPCSISCGMGMRSRERYVKQFPEDGSVCTLPTEETEKCTVNEECSPSSCLMTEWGEWDECSATCGMGMKKRHRMIKMNPADGSMCKAETSQAEKCMMPECHTIPCLLSPWSEWSDCSVTCGKGMRTRQRMLKSLAELGDCNEDLEQVEKCMLPECPIDCELTEWSQWSECNKSCGKGHVIRTRMIQMEPQFGGAPCPETVQRKKCRIRKCLRNPSIQKLRWREARESRRSEQLKEESEGEQFPGCRMRPWTAWSECTKLCGGGIQERYMTVKKRFKSSQFTSCKDKKEIRACNVHPC
As to B1, the “effect of binding on cleavage at the β-secretase cleavage sites” value in assay [4] was “inhibits the cleavage”. In assay [5], the “binding to the central APP domain (CAD) of APP, APLP1 and APLP2” value was “binds”.
